Several values for one entry are separate records, joined by “and”; a condition that tells them apart may be missing. Equal values may be shown once.
System: C57BL/6 mice, Adenocarcinoma 755 sc, tumor weight T/C
Assay: NCI In Vivo Anticancer Drug Screen. Data for tumor model Adenocarcinoma 755 (subcutaneous) in C57BL/6 mice
Conditions: endpoint: mean tumor weight, higher = larger tumour
Experimental: The antitumor activity of compounds was measured in mice bearing transplantable tumors. Survival or tumor size were measured and the results are expressed as the measurement made in the treated group (T) divided by the measurement made in the vehicle treated control group (C). The tumor model used in this assay is Adenocarcinoma 755 (subcutaneous) in C57BL/6 mice

[1] = dose: 6.0 mg/kg/injection, schedule: Q01DX011 (ip), vehicle: carboxymethylcellulose (CMC)
[2] = dose: 30.0 mg/kg/injection, schedule: Q02DX006 (ip), vehicle: other
[3] = dose: 25.0 mg/kg/injection, schedule: Q01DX011 (ip), vehicle: saline
[4] = dose: 50.0 mg/kg/injection, schedule: Q01DX011 (ip), vehicle: saline
[5] = dose: 100.0 mg/kg/injection, schedule: Q01DX011 (ip), vehicle: saline
[6] = dose: 20.0 mg/kg/injection, schedule: Q01DX011 (ip), vehicle: saline
[7] = dose: 30.0 mg/kg/injection, schedule: Q01DX011 (ip), vehicle: saline
[8] = dose: 40.0 mg/kg/injection, schedule: Q01DX011 (ip), vehicle: saline
[9] = dose: 250.0 mg/kg/injection, schedule: Q01DX011 (ip), vehicle: saline
[10] = dose: 500.0 mg/kg/injection, schedule: Q01DX011 (ip), vehicle: saline
[11] = dose: 1000.0 mg/kg/injection, schedule: Q01DX011 (ip), vehicle: saline
[12] = dose: 2000.0 mg/kg/injection, schedule: Q01DX011 (ip), vehicle: saline
[13] = dose: 150.0 mg/kg/injection, schedule: Q01DX011 (ip), vehicle: saline
[14] = dose: 200.0 mg/kg/injection, schedule: Q01DX011 (ip), vehicle: saline

In the case of S=c1nc[nH]c2nc[nH]c12, the T/C (dose: 1.5 mg/kg/injection, schedule: Q01DX011 (ip), vehicle: carboxymethylcellulose (CMC)) is reported as 26 % of control, the T/C (dose: 2.5 mg/kg/injection, schedule: Q01DX011 (ip), vehicle: carboxymethylcellulose (CMC)) is reported as 7 % of control and the T/C (dose: 2.5 mg/kg/injection, schedule: Q01DX011 (ip), vehicle: saline) is reported as 4 % of control. For the same compound, the T/C (dose: 5.0 mg/kg/injection, schedule: Q01DX011 (ip), vehicle: saline) was 8 % of control and 13 % of control, the T/C (dose: 5.0 mg/kg/injection, schedule: Q01DX011 (oral), vehicle: carboxymethylcellulose (CMC)) was 1 % of control and the T/C [1] was 4 % of control. The T/C (dose: 10.0 mg/kg/injection, schedule: Q02DX006 (ip), vehicle: other) was 2 % of control, the T/C (dose: 15.0 mg/kg/injection, schedule: Q01DX011 (ip), vehicle: saline) was 6 % of control and the T/C (dose: 20.0 mg/kg/injection, schedule: Q01DX011 (ip), vehicle: carboxymethylcellulose (CMC)) was 2 % of control. The T/C (dose: 20.0 mg/kg/injection, schedule: Q01DX011 (oral), vehicle: alkali diluted with saline) was 2 % of control, the T/C (dose: 20.0 mg/kg/injection, schedule: Q02DX006 (ip), vehicle: other) was 2 % of control and the T/C [2] was 3 % of control. For the same compound, the T/C (dose: 40.0 mg/kg/injection, schedule: Q01DX011 (oral), vehicle: alkali diluted with saline) was 2 % of control, the T/C (dose: 80.0 mg/kg/injection, schedule: Q01DX011 (oral), vehicle: alkali diluted with saline) was 1 % of control and the T/C (dose: 320.0 mg/kg/injection, schedule: Q01DX001 (oral), vehicle: alkali diluted with saline) was 11 % of control. For the same compound, the T/C (dose: 320.0 mg/kg/injection, schedule: Q03DX004 (oral), vehicle: alkali diluted with saline) was 1 % of control, the T/C (dose: 320.0 mg/kg/injection, schedule: Q07DX002 (oral), vehicle: alkali diluted with saline) was 5 % of control and the T/C (dose: 480.0 mg/kg/injection, schedule: Q01DX001 (oral), vehicle: alkali diluted with saline) was 8 % of control. For the same compound, the T/C (dose: 480.0 mg/kg/injection, schedule: Q07DX002 (oral), vehicle: alkali diluted with saline) was 4 % of control, the T/C (dose: 640.0 mg/kg/injection, schedule: Q01DX001 (oral), vehicle: alkali diluted with saline) was 9 % of control and the T/C (dose: 640.0 mg/kg/injection, schedule: Q07DX002 (oral), vehicle: alkali diluted with saline) was 2 % of control. The T/C (dose: 960.0 mg/kg/injection, schedule: Q01DX001 (oral), vehicle: alkali diluted with saline) was 11 % of control.
With CCn1cnc2c(Cl)ncnc21 the T/C [3] was 29 % of control, the T/C [4] was 10 % of control and the T/C [5] was 1 % of control.
For O=C(O)c1cc(=O)[nH]c(=S)[nH]1, the T/C [6] was 91 % of control, the T/C [7] was 121 % of control and the T/C [8] was 78 % of control. The T/C [4] was 82 % of control.
Cn1cnc([N+](=O)[O-])c1Sc1nc(N)nc2nc[nH]c12 was tested, and the T/C (dose: 5.0 mg/kg/injection, schedule: Q01DX011 (oral), vehicle: saline) was 2 % of control.
Cn1cnc([N+](=O)[O-])c1Sc1ccccc1 was tested, and the T/C [3] was 84 % of control, the T/C [4] was 47 % of control and the T/C [5] was 53 % of control.
In the case of C=CC(COC(C)=O)N1CC1 (stereo not drawn), the T/C (dose: 1.87 mg/kg/injection, schedule: Q01DX011 (oral), vehicle: saline) is reported as 107 % of control, the T/C (dose: 3.75 mg/kg/injection, schedule: Q01DX011 (oral), vehicle: saline) is reported as 56 % of control and the T/C (dose: 7.5 mg/kg/injection, schedule: Q01DX011 (oral), vehicle: saline) is reported as 70 % of control and 80 % of control.
CCOC(=O)n1cnc2ncnc(N)c21 was tested, and the T/C (dose: 25.0 mg/kg/injection, schedule: Q01DX011 (ip), vehicle: carboxymethylcellulose (CMC)) was 56 % of control and the T/C (dose: 75.0 mg/kg/injection, schedule: Q01DX011 (ip), vehicle: carboxymethylcellulose (CMC)) was 104 % of control.
CN1CC(=O)NC1=O was tested, and the T/C [9] was 49 % of control, the T/C [10] was 68 % of control and the T/C [11] was 41 % of control. For the same compound, the T/C [12] was 70 % of control.
With NNC(=O)c1nsnc1NC(N)=O the T/C [1] was 109 % of control, the T/C (dose: 11.0 mg/kg/injection, schedule: Q01DX011 (ip), vehicle: carboxymethylcellulose (CMC)) was 107 % of control and the T/C (dose: 22.0 mg/kg/injection, schedule: Q01DX011 (ip), vehicle: carboxymethylcellulose (CMC)) was 99 % of control.
With Nc1ncnc2n[nH]nc12 the T/C [6] was 60 % of control, the T/C [7] was 85 % of control and the T/C [8] was 46 % of control.
CN(C)c1ncnc2c1ncn2C1OC(CO)C(N)C1O (stereo not drawn) was tested, and the T/C [6] was 23 % of control, the T/C [3] was 62 % of control and the T/C [7] was 13 % of control. The T/C (dose: 35.0 mg/kg/injection, schedule: Q01DX011 (ip), vehicle: saline) was 9 % of control.
In the case of S=c1nc[nH]c2n[nH]nc12, the T/C [2] is reported as 70 % of control and the T/C (dose: 75.0 mg/kg/injection, schedule: Q02DX006 (ip), vehicle: other) is reported as 14 % of control.
In the case of CCCCNc1ncnc2nc[nH]c12, the T/C (dose: 30.0 mg/kg/injection, schedule: Q01DX011 (ip), vehicle: carboxymethylcellulose (CMC)) is reported as 91 % of control.
For NC(=S)N/N=C/c1ccc(N)cc1, the T/C (dose: 35.0 mg/kg/injection, schedule: Q02DX006 (ip), vehicle: other) was 86 % of control, the T/C (dose: 40.0 mg/kg/injection, schedule: Q02DX006 (ip), vehicle: other) was 85 % of control and the T/C (dose: 50.0 mg/kg/injection, schedule: Q02DX006 (ip), vehicle: other) was 87 % of control. For the same compound, the T/C (dose: 60.0 mg/kg/injection, schedule: Q02DX006 (ip), vehicle: other) was 70 % of control and the T/C (dose: 70.0 mg/kg/injection, schedule: Q02DX006 (ip), vehicle: other) was 77 % of control.
In the case of Nc1nc(=S)c2ncn(C3OC(COC(=O)c4ccccc4)C(OC(=O)c4ccccc4)C3OC(=O)c3ccccc3)c2[nH]1 (stereo not drawn), the T/C (dose: 3.1 mg/kg/injection, schedule: Q01DX011 (ip), vehicle: methylcellulose (MC)) is reported as 90 % of control, the T/C (dose: 6.25 mg/kg/injection, schedule: Q01DX011 (ip), vehicle: methylcellulose (MC)) is reported as 62 % of control and the T/C (dose: 12.5 mg/kg/injection, schedule: Q01DX011 (ip), vehicle: methylcellulose (MC)) is reported as 77 % of control. The T/C (dose: 25.0 mg/kg/injection, schedule: Q01DX011 (ip), vehicle: methylcellulose (MC)) was 16 % of control.
With NC(=S)N/N=C/c1ccc([N+](=O)[O-])cc1 the T/C (dose: 75.0 mg/kg/injection, schedule: Q02DX006 (ip), vehicle: saline) was 22 % of control and the T/C (dose: 100.0 mg/kg/injection, schedule: Q02DX006 (ip), vehicle: saline) was 31 % of control.
Cc1ncc(CO)c(C)c1O was tested, and the T/C (dose: 3.13 mg/kg/injection, schedule: Q01DX011 (ip), vehicle: saline) was 88 % of control, the T/C (dose: 6.25 mg/kg/injection, schedule: Q01DX011 (ip), vehicle: saline) was 107 % of control and the T/C (dose: 12.5 mg/kg/injection, schedule: Q01DX011 (ip), vehicle: saline) was 98 % of control. The T/C [3] was 106 % of control, the T/C [4] was 74 % of control and 88 % of control and the T/C [5] was 84 % of control and 107 % of control. The T/C (dose: 125.0 mg/kg/injection, schedule: Q01DX011 (ip), vehicle: saline) was 47 % of control, the T/C [13] was 56 % of control and 66 % of control and the T/C [14] was 119 % of control.
In the case of Clc1nc(Cl)c2[nH]cnc2n1, the T/C [6] is reported as 110 % of control and the T/C [8] is reported as 82 % of control.
NC(=O)c1ccc(N)nc1 was tested, and the T/C (dose: 1.0 mg/kg/injection, schedule: Q01DX011 (ip), vehicle: saline) was 92 % of control and 94 % of control, the T/C (dose: 1.5 mg/kg/injection, schedule: Q01DX011 (ip), vehicle: saline) was 52 % of control and the T/C (dose: 2.0 mg/kg/injection, schedule: Q01DX011 (ip), vehicle: saline) was 48 % of control.
For N/C(=N/N=C/c1ccccc1[N+](=O)[O-])N[N+](=O)[O-], the T/C (dose: 150.0 mg/kg/injection, schedule: Q02DX006 (ip), vehicle: saline) was 95 % of control and the T/C (dose: 200.0 mg/kg/injection, schedule: Q02DX006 (ip), vehicle: saline) was 76 % of control.
For O=c1[nH]cnc2n[nH]nc12, the T/C [13] was 55 % of control and the T/C [14] was 20 % of control.
With CCCCOC(=O)C1(N)CCCC1 the T/C (dose: 28.0 mg/kg/injection, schedule: Q01DX011 (ip), vehicle: saline) was 52 % of control and the T/C (dose: 56.0 mg/kg/injection, schedule: Q01DX011 (ip), vehicle: saline) was 24 % of control.
Cn1cc(NC(=O)c2cc(NC(=O)CN=C(N)N)cn2C)cc1C(=O)NCCC(=N)N was tested, and the T/C (dose: 20.0 mg/kg/injection, schedule: Q02DX006 (ip), vehicle: water) was 95 % of control, the T/C (dose: 25.0 mg/kg/injection, schedule: Q02DX006 (ip), vehicle: water) was 69 % of control and the T/C (dose: 30.0 mg/kg/injection, schedule: Q02DX006 (ip), vehicle: water) was 31 % of control.
CN(CC(=O)O)C(=N)N was tested, and the T/C [9] was 105 % of control, the T/C [10] was 110 % of control and the T/C [11] was 57 % of control. For the same compound, the T/C [12] was 102 % of control.
